Two molecules from ChEMBL document CHEMBL1177789, “Inhibitors for expression of IgE receptor on human mast cell from Puerariae Flos” (Bioorg Med Chem Lett, 2010) can be followed below.

Activity calls are given as the source filed them. The calls are words filed in the database; no cut-off is given here.

In series [1] the test system is HMC1. The series can be described thus: Antiallergic activity in human HMC1 cells assessed as inhibition of IgE […] receptor expression after 72 hrs by flow cytometry. Format: functional, cell-based.
Series [2] can be described thus: Cytotoxicity against human HMC1 cells at 50 uM after 72 hrs. Type of series: cell-based. The conditions noted are these: hmc1, 72 h.
For series [3], the system named is HMC1. The series can be described thus: Antiallergic activity in human HMC1 cells assessed as inhibition of IgE […] receptor mRNA expression after 72 hrs by RT-PCR. Type of series: functional, cell-based.

On to `COc1cc2occ(-c3ccc(O)cc3)c(=O)c2cc1OC`, for which the inhibition result with HMC1 [1] is “Active”. Further, the Activity entry in series [2] was “Non-toxic”.

`COc1c(O)cc2occ(-c3ccc(O)cc3)c(=O)c2c1O`: in the series with HMC1 [3], the inhibition result was “Active”.
